Measurements as given in patent publication US20260258084A1, “New Peptides as Selective IL-23 Receptor Antagonists” (Sanofi, priority 2022, published 2026).
In brackets after ≈: the same amount, converted by molar mass. Read-outs that look alike come from different tables or passages of the source. Starred links: 1 amine or outer side, 2 acyl side, 3 side chain; linkers in the order of their positions; H or OH if unused. Positions of bridges follow the written chain, without caps; N, C: chain ends. Non-standard residues stand in square brackets, D forms with d. Residues, ends and D or L forms follow the SMILES beside them. *: point of attachment. X6 = O=C(CCC(=O)[*:3])N[C@@H](CS[*:2])C(=O)[*:1]; X7 = O=C(CCC(=O)[*:3])N[C@@H](CC[*:2])C(=O)[*:1]; Trp(7-Me) = Cc1cccc2c(C[C@H](N)C(=O)O)c[nH]c12; αMeLys(Me2) = CN(C)CCCC[C@](C)(N)C(=O)O; 2Nal = N[C@@H](Cc1ccc2ccccc2c1)C(=O)O; d2Nal = N[C@H](Cc1ccc2ccccc2c1)C(=O)O; NMe5Ava = CN(CCCCC(=O)[*:2])[*:1]; Palmitoyl = CCCCCCCCCCCCCCCC(=O)*; 3Pal = N[C@@H](Cc1cccnc1)C(=O)O; αMeL = CC(C)C[C@](C)(N)C(=O)O; Suc = O=C(CCC(=O)[*:2])[*:1]; αMeK = C[C@](N)(CCCCN)C(=O)O; Thp = NC1(C(=O)O)CCOCC1; Me2NCH2CH2 = CN(C)CC*; Aib = CC(C)(N)C(=O)O; Ahx = NCCCCCC(=O)O; Ava = NCCCCC(=O)O; Sar = CNCC(=O)O

Experiments:
[1] = target: T1, human interleukin-23 receptor (recombinant human IL-23R-Fc chimera) (Homo sapiens, UniProt Q5VWK5); test: Human ELISA IL23/IL23R (assay for specific human IL23R antagonists); format: binding; conditions: Table 10; read-out: Human ELISA IL23/IL23R IC50
T1 construct: Fc (IgG Fc fusion)
Experimental: Antagonism of compounds for human interleukin-23 receptor antagonists, was determined by an ELISA assay.
A 384-well plate was coated with 50 μl/well of human IL23 at a final concentration of […] and incubated overnight at 4° C. The wells were washed 3 times with 80 μl wash buffer and blocked with 80 μl blocking buffer for 60 minutes at room temperature and washed again. 20 μl of serially diluted test peptides was added to each well and subsequently 20 μl of recombinant human IL-23R-Fc chimera at final concentration of 0.1 μg/ml. The plate was incubated for 60 minutes at room temperature. After the wells were washed, bound IL23R-Fc was detected with goat anti-hu-IgG1-HRP antibody. Signals were visualized with QuantaBlu Fluorogenic Peroxidase Substrate.

[2] = system: IL-23 induced STAT3 signaling in HEK-Blue™ IL-23 cells; test: IL-23 induced STAT3 signaling in HEK-Blue IL-23 cells (SEAP reporter); format: cell-based; conditions: human IL23 0.25 ng/ml, read-out: pSTAT3
Text: HEK-Blue™ IL-23 cells (Invivogen) are designed for the detection of bioactive human (hIL-23) and murine IL-23 (mIL-23) by monitoring the activation of the STAT3 pathway. Binding of IL-23 to its receptor on the surface of HEK-Blue™ IL-23 cells triggers a signalling cascade leading to the activation of STAT3 and the subsequent production of secreted embryonic alkaline phosphatase (SEAP). This can be readily assessed using QUANTI-Blue™ Solution, a SEAP detection reagent.
HEK-Blue™ IL-23 cells were cultured as described by Invivogen.
On the first day of assay 10 μL of the HEK-Blue IL23 cell suspension (final concentration: 10,000 cells/well) and 10 μl of serially diluted peptides solutions were dispensed into a 384-well assay plate. After pre-incubation of the reaction mixtures at 37° C./5% CO2/95% humidity for 60 minutes, 10 μl of the human IL23 cytokine (final concentration: 0.25 ng/ml) was added to each well for the STAT3 signalling activation. The plate was incubated overnight at 37° C./5% CO2/95% humidity.
On the second day 20 μl per well of Quanti-Blue detection solution (prepared according to the manufacture instruction) was dispensed into a new 384-well plate and followed by the transfer of 5 μl supernatant of the overnight incubated cell/sample mixtures. After incubation of 45 min at room temperature signals were measured with PHERAstar (BMG) at OD 620-655 nm. Dose response data were fitted with XLfit.

[3] = Chemical stability assessment of peptides (relative purity loss); format: physicochemical; conditions: 24 hours at 37° C.
Experimental: Purity of a peptide batch was determined through UPLC/MS (Methods B-G) prior to chemical stability measurement. The target concentration was 1 mg/ml pure compound. Solutions from solid samples were prepared in the following buffer systems with a concentration of 1 mg/ml compound based on the previously determined % purity: • Solubility buffer system A) 50 mM HCl pH 1.2+Acetonitrile (1:1) • Solubility buffer system B) 50 mM phosphate buffer pH 6.5+Acetonitrile (1:1) • Solubility buffer system C) 50 mM phosphate buffer pH 7.4+Acetonitrile (1:1)
Prepared solutions were stored for 24 hours at 2° C. and 37° C. After this time course, the samples were centrifuged for 15 min at 2500 RCF to create a 1:5 dilution of the supernatant. Then 2 μl of the dilution were analysed with UHPLC-UV.
The chemical stability was rated through the relative loss of purity calculated by the equation:
[(purity after 0 hours at 37° C.)−(purity after 24 hours at 37° C.)]/(purity after 0 hours at 37° C.)]*100%
The purity is calculated as [(peak area peptide)/(total peak area)]*100%.

[4] = Solubility testing of peptides at different pH; format: physicochemical; conditions: target concentration 1 mg/ml, 2 hours agitation
Experimental: Prior to the solubility measurement of a synthesized peptide batch, its purity was determined through UPLC/MS (methods B-G).
For solubility testing the target concentration was 1 mg pure compound/ml. Therefore, solutions from solid samples were prepared in a buffer system at a concentration of 1 mg/mL compound. The solid samples were obtained by drying down aliquots of a dimethyl sulfoxide stock solution using a Thermo Speedvac vacuum centrifuge. The dry down time was 3 hours. • Solubility buffer system A) 50 mM HCl pH 1.2 • Solubility buffer system B) 50 mM phosphate buffer pH 6.5 • Solubility buffer system C) 50 mM phosphate buffer pH 7.4 • Solubility buffer system D) 50 mM phosphate buffer pH 9.0
UPLC-UV (Method A) was performed after 2 hours of gentle agitation from the filtered (0.45 μm filter plates) solutions, which was obtained by 10 mins of centrifugation forced filtration at 1500 RCF (relative centrifugal acceleration).
The solubility was determined by the comparison of the UV peak area of 2 μL-injections of a buffered sample diluted 1:5 with a standard curve of a dimethyl sulfoxide reference sample of the diluted in dimethyl sulfoxide with known concentration. The different extinction coefficients were taken into account for the calculation.

IC50 [1]	Chemical stability (relative purity loss) Buffer pH 1.2 ([3]; 50 mM HCl pH 1.2 + acetonitrile (1:1))	Chemical stability (relative purity loss) Buffer pH 6.5 ([3]; 50 mM phosphate buffer pH 6.5 + acetonitrile (1:1))	Chemical stability (relative purity loss) Buffer pH 7.4 ([3]; 50 mM phosphate buffer pH 7.4 + acetonitrile (1:1))	solubility at 2 h ([4]; 50 mM HCl buffer, 50 mM HCl pH 1.2, read-out: Solubility Buffer pH 1.2)	solubility at 2 h ([4]; 50 mM phosphate buffer pH 6.5, read-out: Solubility Buffer pH 6.5)	solubility at 2 h ([4]; 50 mM phosphate buffer pH 7.4, read-out: Solubility Buffer pH 7.4)	solubility at 2 h ([4]; 50 mM phosphate buffer pH 9.0, read-out: Solubility Buffer pH 9.0)	SMILES	IC50 [2]
0.32 nM								CC(C)C[C@]1(C)NC(=O)[C@H](Cc2ccc3ccccc3c2)NC(=O)[C@H](Cc2ccc(OCCN(C)C)cc2)NC(=O)[C@@H]2CSSC[C@H](NC(=O)CCCCN(C)C(=O)CC[C@@H](C(=O)N[C@@H](CC(N)=O)C(=O)N[C@@H](CC(N)=O)C(N)=O)NC1=O)C(=O)N[C@@H](CC(N)=O)C(=O)N[C@@H]([C@@H](C)O)C(=O)N[C@@H](Cc1c[nH]c3ccccc13)C(=O)N[C@@H](CCC(N)=O)C(=O)N2 [compound 42] ([NMe5Ava]CNTWQCY(Me2NCH2CH2)[2Nal][αMeL]ENN-NH2; disulfide 2-7; lactam N-11)	1.42 nM
3.47 nM	12.0%	10.0%	9.0%	≥ 1430 µg/mL	750 µg/mL (≈ 354 µM)	≥ 870 µg/mL	810 µg/mL (≈ 382 µM)	CCCCCCCCCCCCCCCC(=O)NCCCC[C@]1(C)NC(=O)[C@H](Cc2ccc3ccccc3c2)NC(=O)[C@H](Cc2ccc(OCCN(C)C)cc2)NC(=O)[C@@H]2CSSC[C@H](NC(=O)CCC(=O)NCCCC[C@@H](C(=O)N[C@@H](CC(N)=O)C(=O)N[C@@H](Cc3cccnc3)C(=O)N(C)CC(N)=O)NC1=O)C(=O)NCCCC[C@H](NC(C)=O)C(=O)N[C@@H](Cc1c[nH]c3c(C)cccc13)C(=O)N[C@@H](CCCCNC(C)=O)C(=O)N2 [compound 101] (Ac-K[Trp(7-Me)]K(Ac)CY(Me2NCH2CH2)[2Nal][αMeK](Palmitoyl)KN[3Pal][Sar]-NH2; linker 1-4-8 via X6)	

Further lines, the compound ahead of its results:

SMILES	IC50 [1]	Chemical stability (relative purity loss) Buffer pH 1.2 ([3]; 50 mM HCl pH 1.2 + acetonitrile (1:1))	Chemical stability (relative purity loss) Buffer pH 6.5 ([3]; 50 mM phosphate buffer pH 6.5 + acetonitrile (1:1))	Chemical stability (relative purity loss) Buffer pH 7.4 ([3]; 50 mM phosphate buffer pH 7.4 + acetonitrile (1:1))	solubility at 2 h ([4]; 50 mM HCl buffer, 50 mM HCl pH 1.2, read-out: Solubility Buffer pH 1.2)	solubility at 2 h ([4]; 50 mM phosphate buffer pH 6.5, read-out: Solubility Buffer pH 6.5)	solubility at 2 h ([4]; 50 mM phosphate buffer pH 7.4, read-out: Solubility Buffer pH 7.4)	solubility at 2 h ([4]; 50 mM phosphate buffer pH 9.0, read-out: Solubility Buffer pH 9.0)	IC50 [2]
COc1ccc(C[C@@H]2NC(=O)[C@H]3NC(=O)[C@H](CCC(N)=O)NC(=O)[C@H](Cc4c[nH]c5ccccc45)NC(=O)CCCCNC(=O)[C@H](CCC(=O)O[C@@H]3C)NC(=O)CCCCCNC(=O)C[C@@H](C(=O)N[C@@H](CC(N)=O)C(=O)N[C@@H](CC(N)=O)C(N)=O)NC(=O)C(C)(C)NC(=O)[C@H](Cc3ccc4ccccc4c3)NC2=O)cc1 [compound 39] ([Ahx]E[Ava]WQTY(Me)[2Nal][Aib]DNN-NH2; ester 2-6; lactam N-10)	1.1 nM								26.4 nM
CC(=O)NCCCC[C@@H]1NC(=O)[C@H](Cc2c[nH]c3c(C)cccc23)NC(=O)[C@@H](NC(C)=O)CCCCNC(=O)[C@@H]2CCSC[C@H](NC1=O)C(=O)N[C@@H](Cc1ccc(OCCN(C)C)cc1)C(=O)N[C@H](Cc1ccc3ccccc3c1)C(=O)NC1(CCOCC1)C(=O)N[C@H](C(=O)N[C@@H](CC(N)=O)C(=O)N[C@@H](Cc1cccnc1)C(=O)N(C)CC(N)=O)CCCCNC(=O)CCC(=O)N2 [compound 122] (Ac-K[Trp(7-Me)]K(Ac)CY(Me2NCH2CH2)[d2Nal][Thp]KN[3Pal][Sar]-NH2; linker 1-4-8 via X7)	2.3 nM								0.37 nM
Cc1cccc2c(C[C@@H]3NC(=O)[C@H]([C@@H](C)O)NC(=O)[C@H](CC(N)=O)NC(=O)[C@@H]4CSSC[C@H](NC(=O)[C@H](CC(C)C)NC3=O)C(=O)N[C@@H](Cc3ccc(OCCN(C)C)cc3)C(=O)N[C@@H](Cc3ccc5ccccc5c3)C(=O)N[C@@](C)(CCCCN(C)C)C(=O)N[C@H](C(=O)N[C@@H](CC(N)=O)C(=O)N[C@@H](Cc3cccnc3)C(N)=O)CCCCNC(=O)CCC(=O)N4)c[nH]c12 [compound 150] (CNT[Trp(7-Me)]LCY(Me2NCH2CH2)[2Nal][αMeLys(Me2)]KN[3Pal]-NH2; disulfide 1-6; linker N-10 via Suc)	0.91 nM								0.13 nM
